Read-outs that look alike come from different tables or passages of the source.
Assays:
[1] = therapeutic maximal blood concentration, ref product labeling, cited from earlier work
[2] = system: RCC V; test: RCC V activity in submitochondrial particles; format: biochemical, rat; settings: relative to DMSO treated samples; as to RCC V at 5XCmax: key: 0 indicates that the drug had no effects (negative)
Summary of the method: (§1)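 First, submitochondrial particles (1 mg/ml) are incubated with inhibitor for 15 min. Next, complex activities are followed spectrophotometrically, with RCC I taken as the difference between buffers lacking and containing rotenone. Finally, activities are expressed relative to DMSO controls set at 1.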

[3] = cited from earlier work
[4] = system: isolated rat liver mitochondria; settings: positive control alamethicin treated samples
[5] = biological target: T1, RCC II (Rattus norvegicus, UniProt P21913+Q641Z9+Q6PCT8+Q920L2); test: RCC II activity in submitochondrial particles; format: biochemical; set-up: key: activity relative to DMSO-treated controls (control set as 1 = 100%); settings: relative to DMSO treated samples
T1 construct: Submitochondrial particles were prepared by subjecting the intact mitochondria to three successive freeze–thaw cycles; from tissue; host or cells: rat liver mitochondria, used as submitochondrial particles
Summary of the method: as §1

[6] = system: isolated rat liver mitochondria; test: Mitochondrial oxygen consumption (glutamate/malate or succinate driven, state 4 and state 3); format: biochemical; settings: DMSO treated samples set as 1; as to State 3 respiration driven by succinate at 10XCmax: key: 0 indicates that the drug had no effects (negative); as to State 3 respiration driven by succinate at 1XCmax: key: 0 indicates that the drug had no effects (negative)
Summary of the method: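 Rat liver mitochondria (1 mg/ml protein) exposed 5 min to kinase inhibitors in 0.1% DMSO, then O2 consumption measured by Clark-type electrode with glutamate/malate or succinate (state 4), ADP added after 3 min (state 3). Rates normalized to 0.1% DMSO controls set to 1.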

[7] = system: isolated rat liver mitochondria; test: Mitochondrial ROS production (CM-H2DCFDA); settings: DMSO treated samples set as 1
[8] = system: isolated rat liver mitochondria; test: Mitochondrial swelling (absorbance at 535 nm); format: biochemical; settings: difference in signal between KI and DMSO treated samples at the end of experiments; as to Swelling 5XCmax: key: 0 indicates that the drug had no effects (negative)
[9] = system: RCC III; test: RCC III activity in submitochondrial particles; format: biochemical, rat; set-up: key to RCC III at 100XCmax: activity relative to DMSO-treated controls (control set as 1 = 100%); settings: 100XCmax; relative to DMSO treated samples
Summary of the method: as §1

[10] = system: RCC I; test: RCC I activity in submitochondrial particles; format: biochemical, rat; set-up: key to RCC I at 10XCmax / RCC I at 100XCmax / RCC I at 50XCmax / RCC I at 30XCmax / RCC I at 20XCmax: activity relative to DMSO-treated controls (control set as 1 = 100%); settings: 10XCmax; relative to DMSO treated samples
Summary of the method: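 Activity relative to DMSO (set as 1) after 15-min exposure of submitochondrial particles (1 mg/ml) to compound. RCC I is defined as rotenone-sensitive activity and RCC II is followed at 600 nm over 6 min.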

T1 sequence (Q920L2 35-656): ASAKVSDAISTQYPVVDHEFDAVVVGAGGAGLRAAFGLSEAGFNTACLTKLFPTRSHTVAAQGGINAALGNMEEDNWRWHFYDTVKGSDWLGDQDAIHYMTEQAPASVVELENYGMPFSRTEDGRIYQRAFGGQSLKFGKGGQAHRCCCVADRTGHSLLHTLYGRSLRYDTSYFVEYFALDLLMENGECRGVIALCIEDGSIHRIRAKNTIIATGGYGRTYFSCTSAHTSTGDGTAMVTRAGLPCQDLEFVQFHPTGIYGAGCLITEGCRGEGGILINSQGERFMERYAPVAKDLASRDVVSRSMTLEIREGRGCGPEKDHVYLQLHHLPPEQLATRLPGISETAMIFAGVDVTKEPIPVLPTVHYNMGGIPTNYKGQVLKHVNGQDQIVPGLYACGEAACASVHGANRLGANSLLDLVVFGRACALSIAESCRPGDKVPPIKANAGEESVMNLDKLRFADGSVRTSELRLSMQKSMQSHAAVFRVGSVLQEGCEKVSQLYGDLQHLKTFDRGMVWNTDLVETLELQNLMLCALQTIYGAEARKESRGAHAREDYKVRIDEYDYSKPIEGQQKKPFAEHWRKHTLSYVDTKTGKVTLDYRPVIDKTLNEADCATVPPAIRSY
T1 sequence (P21913 31-282): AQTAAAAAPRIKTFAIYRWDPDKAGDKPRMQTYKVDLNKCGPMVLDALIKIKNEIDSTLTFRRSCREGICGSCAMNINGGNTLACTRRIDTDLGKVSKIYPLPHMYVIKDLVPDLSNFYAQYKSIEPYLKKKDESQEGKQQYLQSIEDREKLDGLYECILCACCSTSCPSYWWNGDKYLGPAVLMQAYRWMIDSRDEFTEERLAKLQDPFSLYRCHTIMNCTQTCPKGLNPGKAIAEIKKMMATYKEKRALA
T1 sequence (Q641Z9 1-169): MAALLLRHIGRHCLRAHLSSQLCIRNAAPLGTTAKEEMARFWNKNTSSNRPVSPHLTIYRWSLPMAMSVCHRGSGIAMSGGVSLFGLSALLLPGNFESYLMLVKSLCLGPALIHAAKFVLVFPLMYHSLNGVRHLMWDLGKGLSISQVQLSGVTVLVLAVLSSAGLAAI
T1 sequence (Q6PCT8 57-159): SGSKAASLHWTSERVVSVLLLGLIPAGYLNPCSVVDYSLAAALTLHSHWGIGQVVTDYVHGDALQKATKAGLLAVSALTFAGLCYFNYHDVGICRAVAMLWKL

CCN(CC)CCNC(=O)c1c(C)[nH]c(/C=C2\C(=O)Nc3ccc(F)cc32)c1C [sunitinib malate]
BBW: fatal DILI: Labeling for DILI ([3]; in vivo)
0: RCC V at 5XCmax ([2]; 5XCmax) | RCC V at 50XCmax ([2]; 50XCmax) | Cytochrome c release 1XCmax ([4]; 1XCmax) | Cytochrome c release 2.5XCmax ([4]; 2.5XCmax) | Cytochrome c release 5XCmax ([4]; 5XCmax) | Cytochrome c release 10XCmax ([4]; 10XCmax) | Cytochrome c release 20XCmax ([4]; 20XCmax) | Cytochrome c release 30XCmax ([4]; 30XCmax) | Cytochrome c release 50XCmax ([4]; 50XCmax) | Cytochrome c release 100XCmax ([4]; 100XCmax) | RCC II at 1.0XCmax ([5]; 1.0XCmax) | RCC II at 2.5XCmax ([5]; 2.5XCmax) | RCC II at 5XCmax ([5]; 5XCmax) | RCC II at 10XCmax ([5]; 10XCmax) | RCC II at 20XCmax ([5]; 20XCmax) | RCC II at 30XCmax ([5]; 30XCmax) | RCC II at 50XCmax ([5]; 50XCmax) | RCC II at 100XCmax ([5]; 100XCmax) | State 3 respiration driven by glutamate/malate at 1XCmax ([6]; 1XCmax) | State 3 respiration driven by succinate at 1XCmax ([6]; 1XCmax) | State 4 respiration driven by glutamate/malate at 1XCmax ([6]; 1XCmax) | State 4 respiration driven by succinate at 1XCmax ([6]; 1XCmax) | State 3 respiration driven by glutamate/malate at 2.5XCmax ([6]; 2.5XCmax) | State 3 respiration driven by succinate at 2.5XCmax ([6]; 2.5XCmax) | State 4 respiration driven by glutamate/malate at 2.5XCmax ([6]; 2.5XCmax) | State 4 respiration driven by succinate at 2.5XCmax ([6]; 2.5XCmax) | State 3 respiration driven by glutamate/malate at 5XCmax ([6]; 5XCmax) | State 3 respiration driven by succinate at 5XCmax ([6]; 5XCmax) | State 4 respiration driven by glutamate/malate at 5XCmax ([6]; 5XCmax) | State 4 respiration driven by succinate at 5XCmax ([6]; 5XCmax) | State 3 respiration driven by glutamate/malate at 10XCmax ([6]; 10XCmax) | State 3 respiration driven by succinate at 10XCmax ([6]; 10XCmax) | State 4 respiration driven by glutamate/malate at 10XCmax ([6]; 10XCmax) | State 4 respiration driven by succinate at 10XCmax ([6]; 10XCmax) | State 3 respiration driven by glutamate/malate at 20XCmax ([6]; 20XCmax) | State 3 respiration driven by succinate at 20XCmax ([6]; 20XCmax) | State 4 respiration driven by glutamate/malate at 20XCmax ([6]; 20XCmax) | State 4 respiration driven by succinate at 20XCmax ([6]; 20XCmax) | State 3 respiration driven by glutamate/malate at 30XCmax ([6]; 30XCmax) | State 3 respiration driven by succinate at 30XCmax ([6]; 30XCmax) | State 4 respiration driven by glutamate/malate at 30XCmax ([6]; 30XCmax) | State 4 respiration driven by succinate at 30XCmax ([6]; 30XCmax) | State 3 respiration driven by glutamate/malate at 50XCmax ([6]; 50XCmax) | State 3 respiration driven by succinate at 50XCmax ([6]; 50XCmax) | State 4 respiration driven by glutamate/malate at 50XCmax ([6]; 50XCmax) | State 4 respiration driven by succinate at 50XCmax ([6]; 50XCmax) | State 3 respiration driven by glutamate/malate at 100XCmax ([6]; 100XCmax) | State 3 respiration driven by succinate at 100XCmax ([6]; 100XCmax) | State 4 respiration driven by glutamate/malate at 100XCmax ([6]; 100XCmax) | State 4 respiration driven by succinate at 100XCmax ([6]; 100XCmax) | ROS measured by CM-H2DCFDA at 1XCmax ([7]; 1XCmax) | ROS measured by CM-H2DCFDA at 2.5XCmax ([7]; 2.5XCmax) | ROS measured by CM-H2DCFDA at 5XCmax ([7]; 5XCmax) | ROS measured by CM-H2DCFDA at 10XCmax ([7]; 10XCmax) | ROS measured by CM-H2DCFDA at 20XCmax ([7]; 20XCmax) | ROS measured by CM-H2DCFDA at 30XCmax ([7]; 30XCmax) | ROS measured by CM-H2DCFDA at 50XCmax ([7]; 50XCmax) | ROS measured by CM-H2DCFDA at 100XCmax ([7]; 100XCmax) | Swelling 1XCmax ([8]; 1XCmax) | Swelling 2.5XCmax ([8]; 2.5XCmax) | Swelling 5XCmax ([8]; 5XCmax) | Swelling 10XCmax ([8]; 10XCmax) | Swelling 20XCmax ([8]; 20XCmax) | Swelling 30XCmax ([8]; 30XCmax) | Swelling 50XCmax ([8]; 50XCmax) | Swelling 100XCmax ([8]; 100XCmax) | RCC III at 100XCmax [9] | RCC I at 10XCmax [10]
0.12 µM: Cmax ([1]; read-out: Cmax at µM)
0.0619 µg/mL: Cmax [1]
1: DILI potential (based on labeling) ([3]; 1 = DILI positive, 0 = negative, ref product labeling)
